In ChEMBL document CHEMBL3621090, “Discovery of a novel Kv7 channel opener as a treatment for epilepsy” (Bioorg Med Chem Lett, 2015):

Key:
[1] = biological target: Potassium voltage-gated channel subfamily KQT member 2/member 3 (Rattus norvegicus) (UniProt O88943+O88944); assay: Activation of rat Kv7.2/7.3 expressed in CHOK1 cells assessed as increase in current amplitude relative to control; assay type: cell-based; conditions: CHO-K1
[2] = biological target: Voltage-gated potassium channel, KQT; KCNQ2(Kv7.2)/KCNQ3(Kv7.3) (Homo sapiens, UniProt O43525+O43526); assay: (§1) Activation of human Kv7.2/7.3 expressed in CHOK1 cells; assay type: cell-based, CHO-K1
[3] = biological target: Voltage-gated potassium channel, KQT; KCNQ2(Kv7.2)/KCNQ3(Kv7.3) (Homo sapiens) (UniProt O43526+O43525); assay: as §1; assay type: cell-based; conditions: CHO-K1
Rattus norvegicus [4] = assay: Anticonvulsant activity in Sprague-Dawley rat assessed as protection against maximal electroshock-induced convulsion at 10 mg/kg, sc administered 30 mins prior to application of shock via corneal electrodes relative to control; assay type: functional
[5] = Ratio of free drug level in plasma to brain in Sprague-Dawley rat at 1 mg/kg, sc administration at 30 mins; assay type: ADME, organism-based; conditions: in vivo, 0.5 h
[6] = biological target: T1, Voltage-gated potassium channel KCNQ3/KCNQ5 (Homo sapiens, UniProt O43525+Q9NR82); assay: Activation of human Kv7.3/7.5 expressed in CHOK1 cells assessed as increase in current amplitude relative to control; assay type: cell-based; conditions: CHO-K1
Rattus norvegicus [7] = assay: Anticonvulsant activity in Sprague-Dawley rat assessed as protection against maximal electroshock-induced convulsion at 3 mg/kg, po administered 60 mins prior to application of shock via corneal electrodes relative to control; assay type: functional
[8] = Ratio of free drug level in plasma to brain in Sprague-Dawley rat at 3 mg/kg, po administration at 60 mins; assay type: ADME, organism-based; conditions: in vivo, 1 h
[9] = biological target: T1, Voltage-gated potassium channel KCNQ3/KCNQ5; assay: Activation of human Kv7.3/7.5 expressed in CHOK1 cells; assay type: cell-based, CHO-K1
Plasma [10] = assay: Unbound plasma concentration in Sprague-Dawley rat at 10 mg/kg, sc administered at 30 mins by LC-MS/MS analysis; assay type: ADME, organism-based; conditions: in vivo, 0.5 h
CHO-K1 = assay: Activation of rat Kv7.3/7.5 expressed in CHOK1 cells assessed as increase in current amplitude relative to control; assay type: cell-based
[11] = Intrinsic clearance in human liver microsomes measured over 1 hr in presence of NADPH regenerating system; assay type: ADME; conditions: read-out: CLH
Brain [12] = assay: Fraction unbound in Sprague-Dawley rat brain at 30 mg/kg, po administered at 60 mins by LC-MS/MS analysis; assay type: ADME, organism-based; conditions: in vivo, 1 h
Plasma [13] = assay: Unbound plasma concentration in Sprague-Dawley rat at 1 mg/kg, sc administered at 30 mins by LC-MS/MS analysis; assay type: ADME, organism-based; conditions: in vivo, 0.5 h
[14] = Activation of rat Kv7.3/7.5 expressed in CHOK1 cells; assay type: cell-based; conditions: CHO-K1
[15] = Ratio of free drug level in plasma to brain in Sprague-Dawley rat at 3 mg/kg, sc administration at 30 mins; assay type: ADME, organism-based; conditions: in vivo, 0.5 h
[16] = biological target: Voltage-gated potassium channel, IKs; KCNQ1(Kv7.1)/KCNE1(MinK) (Homo sapiens, UniProt P15382+P51787); assay: Activation of human Kv7.1/KCNE1 expressed in CHOK1 cells; assay type: cell-based, CHO-K1
Brain [17] = assay: Fraction unbound in Sprague-Dawley rat brain at 10 mg/kg, sc administered at 30 mins by LC-MS/MS analysis; assay type: ADME, organism-based; conditions: in vivo, 0.5 h
Rattus norvegicus [18] = assay: Anticonvulsant activity in Sprague-Dawley rat assessed as protection against maximal electroshock-induced convulsion at 3 mg/kg, sc administered 30 mins prior to application of shock via corneal electrodes relative to control; assay type: functional
[19] = Ratio of free drug level in plasma to brain in Sprague-Dawley rat at 10 mg/kg, po administration at 60 mins; assay type: ADME, organism-based; conditions: in vivo, 1 h
[20] = biological target: T2, Potassium voltage-gated channel subfamily KQT member 4 (Homo sapiens) (UniProt P56696); assay: Activation of human Kv7.4 expressed in CHOK1 cells assessed as increase in current amplitude relative to control; assay type: cell-based; conditions: CHO-K1
T2 sequence (whole entry): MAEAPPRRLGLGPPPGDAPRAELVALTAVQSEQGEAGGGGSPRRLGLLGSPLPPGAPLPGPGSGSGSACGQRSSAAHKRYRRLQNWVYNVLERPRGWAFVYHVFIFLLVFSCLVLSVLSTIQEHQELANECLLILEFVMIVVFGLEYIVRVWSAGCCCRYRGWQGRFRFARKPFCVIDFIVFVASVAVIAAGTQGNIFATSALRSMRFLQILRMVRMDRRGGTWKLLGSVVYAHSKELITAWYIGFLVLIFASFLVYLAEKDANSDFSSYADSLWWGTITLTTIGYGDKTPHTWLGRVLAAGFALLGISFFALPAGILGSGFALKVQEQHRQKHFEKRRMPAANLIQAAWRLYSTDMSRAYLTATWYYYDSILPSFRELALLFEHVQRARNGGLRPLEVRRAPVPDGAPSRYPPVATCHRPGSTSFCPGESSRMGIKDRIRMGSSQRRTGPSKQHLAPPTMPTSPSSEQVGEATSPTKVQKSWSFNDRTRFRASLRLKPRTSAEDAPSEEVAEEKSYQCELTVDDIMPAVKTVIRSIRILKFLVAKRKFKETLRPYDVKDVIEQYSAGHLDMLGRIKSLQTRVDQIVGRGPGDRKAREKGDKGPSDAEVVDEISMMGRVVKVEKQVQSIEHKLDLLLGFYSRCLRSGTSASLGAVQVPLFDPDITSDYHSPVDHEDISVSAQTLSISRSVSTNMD

Rattus norvegicus [21] = assay: Anticonvulsant activity in Sprague-Dawley rat assessed as protection against maximal electroshock-induced convulsion at 30 mg/kg, sc administered 30 mins prior to application of shock via corneal electrodes relative to control; assay type: functional
Brain [22] = assay: Fraction unbound in Sprague-Dawley rat brain at 1 mg/kg, po administered at 60 mins by LC-MS/MS analysis; assay type: ADME, organism-based; conditions: in vivo, 1 h
[23] = biological target: Potassium voltage-gated channel subfamily KQT member 2/member 3 (Rattus norvegicus, UniProt O88943+O88944); assay: Activation of rat Kv7.2/7.3 expressed in CHOK1 cells; assay type: cell-based, CHO-K1
[24] = Toxicity in human THLE cells assessed as ATP depletion; assay type: cell-based
MDCK = assay: Efflux ratio of permeability from basolateral to apical over apical to basolateral side in MDCK cells transfected with MDR1; assay type: ADME, cell-based, Canis lupus familiaris; conditions: dog
Plasma [25] = assay: Unbound plasma concentration in Sprague-Dawley rat at 10 mg/kg, po administered at 60 mins by LC-MS/MS analysis; assay type: ADME, organism-based; conditions: in vivo, 1 h
Rattus norvegicus [26] = assay: Anticonvulsant activity in Sprague-Dawley rat assessed as protection against maximal electroshock-induced convulsion at 1 mg/kg, sc administered 30 mins prior to application of shock via corneal electrodes relative to control; assay type: functional
[27] = Ratio of free drug level in plasma to brain in Sprague-Dawley rat at 1 mg/kg, po administration at 60 mins; assay type: ADME, organism-based; conditions: in vivo, 1 h
Brain [28] = assay: Fraction unbound in Sprague-Dawley rat brain at 3 mg/kg, po administered at 60 mins by LC-MS/MS analysis; assay type: ADME, organism-based; conditions: in vivo, 1 h
[29] = biological target: Voltage-gated potassium channel, IKs; KCNQ1(Kv7.1)/KCNE1(MinK) (Homo sapiens, UniProt P51787+P15382); assay: Activation of human Kv7.1/KCNE1 expressed in CHOK1 cells assessed as increase in current amplitude relative to control; assay type: cell-based; conditions: cho-k1
Voltage-gated potassium channel, IKs; KCNQ1(Kv7.1)/KCNE1(MinK) (Homo sapiens, UniProt P51787+P15382), sequence (P51787 whole entry): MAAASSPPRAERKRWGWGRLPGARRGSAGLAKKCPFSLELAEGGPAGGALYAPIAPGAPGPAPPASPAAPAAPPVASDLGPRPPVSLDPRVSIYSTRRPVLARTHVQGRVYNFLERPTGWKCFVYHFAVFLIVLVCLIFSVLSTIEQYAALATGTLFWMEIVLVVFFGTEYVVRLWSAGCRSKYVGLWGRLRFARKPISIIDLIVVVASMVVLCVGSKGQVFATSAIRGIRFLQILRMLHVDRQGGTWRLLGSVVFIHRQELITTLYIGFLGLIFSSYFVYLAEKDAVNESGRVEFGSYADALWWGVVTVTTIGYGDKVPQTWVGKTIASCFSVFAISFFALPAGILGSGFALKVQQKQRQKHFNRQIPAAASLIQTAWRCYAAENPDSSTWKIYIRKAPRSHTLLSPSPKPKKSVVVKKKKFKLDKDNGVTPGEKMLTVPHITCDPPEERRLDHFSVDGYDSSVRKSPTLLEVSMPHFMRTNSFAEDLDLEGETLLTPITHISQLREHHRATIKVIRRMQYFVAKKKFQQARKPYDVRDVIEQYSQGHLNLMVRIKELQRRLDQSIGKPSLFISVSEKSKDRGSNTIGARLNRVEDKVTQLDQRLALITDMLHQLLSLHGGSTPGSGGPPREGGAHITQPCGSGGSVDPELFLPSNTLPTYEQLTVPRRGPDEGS

Voltage-gated potassium channel, KQT; KCNQ2(Kv7.2)/KCNQ3(Kv7.3), sequence (O43526 whole entry): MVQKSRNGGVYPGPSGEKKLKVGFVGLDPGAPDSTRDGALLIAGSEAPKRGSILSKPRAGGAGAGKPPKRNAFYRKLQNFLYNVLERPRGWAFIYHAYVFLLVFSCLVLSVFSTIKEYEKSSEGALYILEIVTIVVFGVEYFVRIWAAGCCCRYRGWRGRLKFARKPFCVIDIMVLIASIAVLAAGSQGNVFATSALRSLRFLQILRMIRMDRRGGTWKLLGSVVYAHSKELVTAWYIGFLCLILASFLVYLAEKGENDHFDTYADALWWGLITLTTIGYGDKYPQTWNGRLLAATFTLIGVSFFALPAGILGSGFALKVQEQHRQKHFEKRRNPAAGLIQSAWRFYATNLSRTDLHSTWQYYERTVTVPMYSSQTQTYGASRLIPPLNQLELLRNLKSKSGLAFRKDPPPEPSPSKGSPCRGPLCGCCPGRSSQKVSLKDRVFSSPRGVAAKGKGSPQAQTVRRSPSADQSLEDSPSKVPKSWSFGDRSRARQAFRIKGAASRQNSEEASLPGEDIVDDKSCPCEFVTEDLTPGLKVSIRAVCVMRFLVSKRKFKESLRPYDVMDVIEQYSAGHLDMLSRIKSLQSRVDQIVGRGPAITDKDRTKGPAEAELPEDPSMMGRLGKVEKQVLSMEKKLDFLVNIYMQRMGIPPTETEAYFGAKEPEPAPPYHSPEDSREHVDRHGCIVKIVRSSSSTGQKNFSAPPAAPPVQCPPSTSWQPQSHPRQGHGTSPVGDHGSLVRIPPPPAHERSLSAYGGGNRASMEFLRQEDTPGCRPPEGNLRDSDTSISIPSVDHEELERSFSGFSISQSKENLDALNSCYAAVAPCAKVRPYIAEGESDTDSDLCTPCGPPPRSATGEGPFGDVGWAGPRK
Voltage-gated potassium channel, KQT; KCNQ2(Kv7.2)/KCNQ3(Kv7.3), sequence (O43525 whole entry): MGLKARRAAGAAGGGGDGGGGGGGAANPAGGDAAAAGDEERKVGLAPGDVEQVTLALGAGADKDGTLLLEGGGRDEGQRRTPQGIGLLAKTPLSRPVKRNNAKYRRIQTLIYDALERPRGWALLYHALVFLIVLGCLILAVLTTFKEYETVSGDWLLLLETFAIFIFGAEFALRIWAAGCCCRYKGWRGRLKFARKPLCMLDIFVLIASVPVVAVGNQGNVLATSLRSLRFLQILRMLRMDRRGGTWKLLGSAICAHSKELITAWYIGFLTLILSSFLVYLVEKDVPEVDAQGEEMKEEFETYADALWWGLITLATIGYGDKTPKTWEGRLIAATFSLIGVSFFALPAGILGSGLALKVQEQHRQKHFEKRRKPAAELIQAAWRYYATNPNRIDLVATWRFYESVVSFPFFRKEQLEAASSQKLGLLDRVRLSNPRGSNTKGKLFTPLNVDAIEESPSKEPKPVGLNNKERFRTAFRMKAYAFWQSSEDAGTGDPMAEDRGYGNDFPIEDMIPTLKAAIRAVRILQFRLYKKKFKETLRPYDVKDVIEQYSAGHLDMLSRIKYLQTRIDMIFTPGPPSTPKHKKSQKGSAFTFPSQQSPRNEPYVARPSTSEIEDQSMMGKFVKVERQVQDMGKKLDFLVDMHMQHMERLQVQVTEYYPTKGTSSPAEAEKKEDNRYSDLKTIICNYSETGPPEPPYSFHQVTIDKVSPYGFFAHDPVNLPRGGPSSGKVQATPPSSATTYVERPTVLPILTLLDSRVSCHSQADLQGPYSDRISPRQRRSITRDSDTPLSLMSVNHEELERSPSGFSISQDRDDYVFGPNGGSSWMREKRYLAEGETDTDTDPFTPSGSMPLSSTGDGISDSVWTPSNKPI
Voltage-gated potassium channel, IKs; KCNQ1(Kv7.1)/KCNE1(MinK) (Homo sapiens, UniProt P15382+P51787), sequence (P51787 whole entry): as the sequence (P51787 whole entry) above
T1 sequence (O43525 whole entry): as the sequence (O43525 whole entry) above
T1 sequence (Q9NR82 whole entry): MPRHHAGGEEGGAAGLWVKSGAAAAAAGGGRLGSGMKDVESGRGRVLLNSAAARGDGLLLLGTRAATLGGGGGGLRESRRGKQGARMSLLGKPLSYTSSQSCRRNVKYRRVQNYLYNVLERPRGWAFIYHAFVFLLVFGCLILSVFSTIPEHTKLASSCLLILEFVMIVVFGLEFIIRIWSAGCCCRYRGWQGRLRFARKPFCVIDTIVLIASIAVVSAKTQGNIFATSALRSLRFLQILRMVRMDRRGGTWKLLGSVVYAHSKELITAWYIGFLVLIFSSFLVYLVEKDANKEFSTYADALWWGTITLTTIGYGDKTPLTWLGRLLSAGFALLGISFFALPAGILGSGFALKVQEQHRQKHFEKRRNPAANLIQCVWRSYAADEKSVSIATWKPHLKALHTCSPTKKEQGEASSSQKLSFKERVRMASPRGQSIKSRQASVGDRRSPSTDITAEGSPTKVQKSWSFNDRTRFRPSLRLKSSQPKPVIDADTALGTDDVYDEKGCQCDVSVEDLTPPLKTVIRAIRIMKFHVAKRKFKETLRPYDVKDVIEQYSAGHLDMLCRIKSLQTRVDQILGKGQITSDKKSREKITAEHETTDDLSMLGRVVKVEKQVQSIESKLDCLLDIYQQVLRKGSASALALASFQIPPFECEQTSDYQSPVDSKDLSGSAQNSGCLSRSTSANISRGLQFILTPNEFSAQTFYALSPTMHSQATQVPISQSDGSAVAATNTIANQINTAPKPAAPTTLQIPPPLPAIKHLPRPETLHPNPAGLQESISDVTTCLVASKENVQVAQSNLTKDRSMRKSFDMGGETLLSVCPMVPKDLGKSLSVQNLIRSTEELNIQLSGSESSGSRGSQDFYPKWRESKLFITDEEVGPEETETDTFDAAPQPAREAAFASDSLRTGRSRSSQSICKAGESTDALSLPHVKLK

Activity [1]: 237%
EC50 [2]: 334 nM
max activation [3]: 147%
Ratio [5]: 0.57
Activity [6]: 246%
Ratio [8]: 0.39
EC50 [9]: 588 nM
Cp(f) (Plasma [10]): 211 nM
CLint scaled [11]: 15.6 mL/min/kg
Drug uptake(free) (Brain [12]): 274 nM
Cp(f) (Plasma [13]): 58 nM
EC50 [14]: 1330 nM
Ratio [15]: 0.59
EC50 [16]: > 100000 nM
Drug uptake(free) (Brain [17]): 125 nM
Ratio [19]: 0.37
Activity [20]: 163%
Drug uptake(free) (Brain [22]): 6 nM
EC50 [23]: 294 nM
Ratio (MDCK): 1.25
Cp(f) (Plasma [25]): 225 nM
Ratio [27]: 0.42
Drug uptake(free) (Brain [28]): 43 nM
Activity [29]: 84%
SMILES: COc1nc(N2CCC(OC)CC2)nc(OC)c1NC(=O)CC(C)(C)C
Activity (Rattus norvegicus [4]): 100%
Activity (Rattus norvegicus [7]): 88%
Activity (CHO-K1): 207%
Activity (Rattus norvegicus [18]): 100%
Activity (Rattus norvegicus [21]): 100%
IC50 [24]: > 300000 nM
Activity (Rattus norvegicus [26]): 43%
